Measurements: patent publication US10927105B1 (Lundbeck La Jolla Research Center, Inc., priority 2017, dated 2021)

What follows are molecules tested against MAGL (Homo sapiens (Human), UniProt Q99685) (assay: In vitro competitive activity-based protein profiling (human prefrontal cortex membrane fractions, FP-Rh probe), MAGL band). Conditions: read-out: MAGL IC50 (μM) (human); human prefrontal cortex membrane fractions.
Chain of MAGL (Q99685 whole entry): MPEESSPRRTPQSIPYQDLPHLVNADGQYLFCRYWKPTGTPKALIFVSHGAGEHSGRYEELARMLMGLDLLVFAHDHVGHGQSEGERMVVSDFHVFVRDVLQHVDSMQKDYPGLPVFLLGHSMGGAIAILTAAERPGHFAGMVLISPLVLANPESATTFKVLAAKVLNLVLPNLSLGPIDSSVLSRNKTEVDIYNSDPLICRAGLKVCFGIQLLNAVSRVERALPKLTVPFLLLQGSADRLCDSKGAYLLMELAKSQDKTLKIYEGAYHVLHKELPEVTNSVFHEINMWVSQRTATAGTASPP
Experimental: Biological Evaluation In Vitro Competitive Activity-Based Protein Profiling.
Proteomes (mouse brain membrane fraction for mouse assays; human prefrontal cortex membrane fractions for human assays) (50 mL, 1.0 mg/mL total protein concentration) were preincubated with varying concentrations of inhibitors at 37° C. After 30 min, FP-Rh (1.0 mL, 50 mM in DMSO) was added and the mixture was incubated for another 30 min at 37° C. Reactions were quenched with SDS loading buffer (15 μL-4×) and run on SDS-PAGE.

Q: Which IC50 does the source give for `O=C(O)c1ccn(C(=O)N2C[C@H]3C[C@H](Oc4ccc(-c5ccccc5)cc4)C[C@H]3C2)n1` [Example 240, 1-(trans-5-([1,1′-biphenyl]-4-yloxy)-octahydrocyclopenta-[c]pyrrole-2-carbonyl)-1H-pyrazole-3-carboxylic acid] here?
A: < 0.1 µM

Q: How did the IC50 turn out when `CNC(=O)c1ccn(C(=O)N2C[C@H]3C[C@@H](N(C)Cc4ccc(C(F)(F)F)cc4)C[C@H]3C2)n1` [Example 439, N-methyl-1-(cis-5-(methyl(4-(trifluoromethyl)-benzyl)amino)-octahydrocyclopenta-[c]pyrrole-2-carbonyl)-1H-pyrazole-3-carboxamide] was run?
A: < 0.1 µM

Q: For `O=C(O)c1ccn(C(=O)N2CCN(Cc3cccc(Oc4ccc(C(F)(F)F)cn4)c3)CC2)n1` [Example 61, 1-(4-(3-((5-(trifluoromethyl)-pyridin-2-yl)oxy)benzyl)-piperazine-1-carbonyl)-1H-pyrazole-3-carboxylic acid], which IC50 is on record?
A: < 0.1 µM

Q: For `O=C(O)c1ccn(C(=O)N2CCC3(CCCN3Cc3ccc(C(F)(F)F)cc3N3CC4CCC(C3)O4)CC2)n1` [Example 416, 1-(1-(2-(8-oxa-3-azabicyclo[3.2.1]-octan-3-yl)-4-(trifluoromethyl)-benzyl)-1,8-diazaspiro[4.5]-decane-8-carbonyl)-1H-pyrazole-3-carboxylic acid], which IC50 is on record?
A: < 0.1 µM

Q: With `O=C(O)c1nn(C(=O)N2CCN(Cc3ccc(C(F)(F)F)cc3N3CCCC3)CC2)cc1Cl` [Example 443, 4-chloro-1-(4-(2-(pyrrolidin-1-yl)-4-(trifluoromethyl)-benzyl)-piperazine-1-carbonyl)-1H-pyrazole-3-carboxylic acid] as the molecule, how does the IC50 read?
A: < 0.1 µM

Q: Which IC50 does the source give for `Cc1cn(C(=O)N2CCC3(CCN(Cc4cc(Cl)ccc4C(F)(F)F)C3)CC2)nc1C(=O)O` [Example 130, 1-(2-(5-chloro-2-(trifluoromethyl)-benzyl)-2,8-diazaspiro[4.5]-decane-8-carbonyl)-4-methyl-1H-pyrazole-3-carboxylic acid] here?
A: < 0.1 µM

Q: For `O=C(O)c1ccn(C(=O)N2CCC3(CCN(Cc4cc(N5CCCC5)ccc4C(F)(F)F)C3)CC2)n1` [Example 391, 1-(2-(5-(pyrrolidin-1-yl)-2-(trifluoromethyl)-benzyl)-2,8-diazaspiro[4.5]-decane-8-carbonyl)-1H-pyrazole-3-carboxylic acid], which IC50 is on record?
A: < 0.1 µM

Q: For `O=C(O)c1nn(C(=O)N2CCN(Cc3ccc(N4CCCC4)cc3C(F)(F)F)CC2)cc1Cl` [Example 368, 4-chloro-1-(4-(4-(pyrrolidin-1-yl)-2-(trifluoromethyl)-benzyl)piperazine-1-carbonyl)-1H-pyrazole-3-carboxylic acid], which IC50 is on record?
A: < 0.1 µM

Q: For `Cc1ccc(Oc2cccc(CN3CCN(C(=O)n4ccc(C(=O)O)n4)CC3)c2)cc1` [Example 251, 1-(4-(3-(p-tolyloxy)benzyl)-piperazine-1-carbonyl)-1H-pyrazole-3-carboxylic acid], which IC50 is on record?
A: < 0.1 µM

Q: How did the IC50 turn out when `Cc1cc(O[C@H]2C[C@@H]3CN(C(=O)n4ccc(C(=O)O)n4)C[C@@H]3C2)ccc1C(F)(F)F` [Example 254, 1-(trans-5-(3-methyl-4-(trifluoromethyl)-phenoxy)-octahydrocyclopenta-[c]pyrrole-2-carbonyl)-1H-pyrazole-3-carboxylic acid] was run?
A: < 0.1 µM

Q: `NC(=O)c1ccn(C(=O)N2CCC3(CCCN3C(=O)c3cc4ccc(C(F)(F)F)cc4s3)CC2)n1` [Example 389, 1-(1-(6-(trifluoromethyl)-benzo-[b]thiophene-2-carbonyl)-1,8-diazaspiro-[4.5]decane-8-carbonyl)-1H-pyrazole-3-carboxamide] was tested. Which IC50 did it give?
A: < 0.1 µM

Q: With `Cc1cn(C(=O)N2C[C@H]3C[C@H](Oc4cccc(-c5ccccc5)c4)C[C@H]3C2)nc1C(=O)O` [Example 280, 1-(trans-5-([1,1′-biphenyl]-3-yloxy)-octahydrocyclopenta-[c]pyrrole-2-carbonyl)-4-methyl-1H-pyrazole-3-carboxylic acid] as the molecule, how does the IC50 read?
A: < 0.1 µM

Q: Which IC50 does the source give for `O=C(O)c1nn(C(=O)N2C[C@H]3C[C@H](Oc4cccc(-c5ccccc5)c4)C[C@H]3C2)cc1Cl` [Example 304, 1-(trans-5-([1,1′-biphenyl]-3-yloxy)-octahydrocyclopenta-[c]pyrrole-2-carbonyl)-4-chloro-1H-pyrazole-3-carboxylic acid] here?
A: < 0.1 µM

Q: For `O=C(O)c1ccn(C(=O)N2CCN(Cc3cccc(Oc4cc(C(F)(F)F)ccn4)c3)CC2)n1` [Example 57, 1-(4-(3-((4-(trifluoromethyl)-pyridin-2-yl)oxy)benzyl)-piperazine-1-carbonyl)-1H-pyrazole-3-carboxylic acid], which IC50 is on record?
A: < 0.1 µM

Q: For `O=C(O)c1ccn(C(=O)N2CCC3(CCN(Cc4cc(Cl)cc(Cl)c4Cl)C3)CC2)n1` [Example 337, 1-(2-(2,3,5-trichlorobenzyl)-2,8-diazaspiro[4.5]-decane-8-carbonyl)-1H-pyrazole-3-carboxylic acid], which IC50 is on record?
A: < 0.1 µM

Q: For `O=C(O)c1nn(C(=O)N2CCC3(CCN(Cc4cccc(Cl)c4C(F)(F)F)C3)CC2)cc1Cl` [Example 26, 4-Chloro-1-(2-(3-chloro-2-(trifluoromethyl)benzyl)-2,8-diazaspiro[4.5]decane-8-carbonyl)-1H-pyrazole-3-carboxylic Acid], which IC50 is on record?
A: < 0.1 µM

Q: `C[C@@H]1CN(Cc2ccc(-c3ccccc3)cc2Cl)CCN1C(=O)n1ccc(C(=O)O)n1` [Example 291, (R)-1-(4-((3-chloro-[1,1′-biphenyl]-4-yl)methyl)-2-methylpiperazine-1-carbonyl)-1H-pyrazole-3-carboxylic acid] was tested. Which IC50 did it give?
A: < 0.1 µM

Q: With `Cc1cn(C(=O)N2C[C@H]3C[C@H](OCc4cc(F)cc(Cl)c4)C[C@H]3C2)nc1C(=O)O` [Example 252, 1-(trans-5-((3-chloro-5-fluorobenzyl)oxy)-octahydrocyclopenta-[c]pyrrole-2-carbonyl)-4-methyl-1H-pyrazole-3-carboxylic acid] as the molecule, how does the IC50 read?
A: < 0.1 µM

Q: How did the IC50 turn out when `O=C(O)c1ccn(C(=O)N2CC3CN(Cc4cc(Cl)cc(C(F)(F)F)c4)CC3C2)n1` (stereo not shown) [Example 124, 1-(5-(3-chloro-5-(trifluoromethyl)-benzyl)-octahydropyrrolo-[3,4-c]pyrrole-2-carbonyl)-1H-pyrazole-3-carboxylic acid] was run?
A: < 0.1 µM

Q: How did the IC50 turn out when `C[C@H]1CN(Cc2cc(F)cc(Oc3ccc(Cl)cc3)c2)CCN1C(=O)n1ccc(C(=O)O)n1` [Example 347, (S)-1-(4-(3-(4-chlorophenoxy)-5-fluorobenzyl)-2-methylpiperazine-1-carbonyl)-1H-pyrazole-3-carboxylic acid] was run?
A: < 0.1 µM

Q: How did the IC50 turn out when `O=C(O)c1ccn(C(=O)N2C[C@H]3C[C@H](Oc4ccc(Cl)c(-c5nccs5)c4)C[C@H]3C2)n1` [Example 318, 1-(trans-5-(4-chloro-3-(thiazol-2-yl)phenoxy)-octahydrocyclopenta-[c]pyrrole-2-carbonyl)-1H-pyrazole-3-carboxylic acid] was run?
A: < 0.1 µM

Q: `O=C(O)c1ccn(C(=O)N2CCN(Cc3cccc(Oc4cccc(C(F)(F)F)n4)c3)CC2)n1` [Example 353, 1-(4-(3-((6-(trifluoromethyl)-pyridin-2-yl)oxy)benzyl)-piperazine-1-carbonyl)-1H-pyrazole-3-carboxylic acid] was tested. Which IC50 did it give?
A: < 0.1 µM

Q: Which IC50 does the source give for `CN(Cc1cc(Cl)ccc1C(F)(F)F)C1CCN(C(=O)n2cc(Cl)c(C(=O)O)n2)CC1` [Example 112, 4-chloro-1-(4-((5-chloro-2-(trifluoromethyl)-benzyl)-(methyl)amino)-piperidine-1-carbonyl)-1H-pyrazole-3-carboxylic acid] here?
A: < 0.1 µM

Q: How did the IC50 turn out when `C[C@H]1CN(Cc2cccc(Oc3cc(C(F)(F)F)ccn3)c2)CCN1C(=O)n1ccc(C(=O)O)n1` [Example 373, (S)-1-(2-methyl-4-(3-((4-(trifluoromethyl)-pyridin-2-yl)oxy)benzyl)-piperazine-1-carbonyl)-1H-pyrazole-3-carboxylic acid] was run?
A: < 0.1 µM

Q: Which IC50 does the source give for `O=C(O)c1ccn(C(=O)N2CCC3(CCCN3Cc3ccc(C(F)(F)F)cc3N3CCCC3)CC2)n1` [Example 93, 1-(1-(2-(pyrrolidin-1-yl)-4-(trifluoromethyl)-benzyl)-1,8-diazaspiro[4.5]-decane-8-carbonyl)-1H-pyrazole-3-carboxylic acid] here?
A: < 0.1 µM

Q: With `O=C(O)c1ccn(C(=O)N2C[C@H]3C[C@H](Oc4cccc(C5CCCC5)c4)C[C@H]3C2)n1` [Example 232, 1-(trans-5-(3-cyclopentyl-phenoxy)-octahydrocyclopenta-[c]pyrrole-2-carbonyl)-1H-pyrazole-3-carboxylic acid] as the molecule, how does the IC50 read?
A: < 0.1 µM

Q: How did the IC50 turn out when `Cc1cn(C(=O)N2C[C@H]3C[C@H](OCc4cccc(C(F)(F)F)c4)C[C@H]3C2)nc1C(=O)O` [Example 290, 4-methyl-1-(trans-5-((3-(trifluoromethyl)-benzyl)oxy)-octahydrocyclopenta-[c]pyrrole-2-carbonyl)-1H-pyrazole-3-carboxylic acid] was run?
A: < 0.1 µM

Q: For `Cc1cc(-c2ccccc2)ccc1CN1CCN(C(=O)n2ccc(C(=O)O)n2)[C@H](C)C1` [Example 245, (R)-1-(2-methyl-4-((3-methyl-[1,1′-biphenyl]-4-yl)methyl)-piperazine-1-carbonyl)-1H-pyrazole-3-carboxylic acid], which IC50 is on record?
A: < 0.1 µM

Q: How did the IC50 turn out when `NC(=O)c1ccn(C(=O)N2CC3CN(Cc4ccc(C5(O)CCOCC5)cc4C(F)(F)F)CC3C2)n1` (stereo not shown) [Example 396, 1-(5-(4-(4-hydroxytetrahydro-2H-pymn-4-yl)-2-(trifluoromethyl)-benzyl)-octahydropyrrolo-[3,4-c]pyrrole-2-carbonyl)-1H-pyrazole-3-carboxamide] was run?
A: < 0.1 µM

Q: Which IC50 does the source give for `O=C(O)c1ccn(C(=O)N2CCN(Cc3ccc(C(F)(F)F)cc3N3CCCCC3)CC2)n1` [Example 100, 1-(4-(2-(piperidin-1-yl)-4-(trifluoromethyl)-benzyl)-piperazine-1-carbonyl)-1H-pyrazole-3-carboxylic acid] here?
A: < 0.1 µM

Q: For `C[C@@H]1CN(Cc2cccc(OCC(C)(C)O)c2Cl)CCN1C(=O)n1ccc(C(N)=O)n1` [Example 216, (R)-1-(4-(2-chloro-3-(2-hydroxy-2-methylpropoxy)-benzyl)-2-methylpiperazine-1-carbonyl)-1H-pyrazole-3-carboxamide], which IC50 is on record?
A: < 0.1 µM
